The values below are quoted from earlier work in patent US20070016968A1, “Treatment of pain through expression of opioid receptors” (priority 2003, published 2007).

The structures appear in SMILES notation.

One series relates to mice of the CXBX strain. Conditions: CXBX strain mice (Rossi et al 1996).
Series [1] deals with MOR-1 knockout mice (exon-1). Conditions: disruption in exon-1 (Schuller et al 1999).
The next series deals with mice. Conditions: antinociception tests on mice.
The test system of the next series is μ-receptor. The conditions noted are these: in vivo studies (Ling et al).
The subject of another series is μ1-site. The conditions noted are these: Ling et al 1984, 1985.
The target of a further series is cloned DOR-1 receptor (Mus musculus, UniProt P32300). Conditions: mouse recombinant receptor.
Sequence of cloned DOR-1 receptor (P32300 whole entry): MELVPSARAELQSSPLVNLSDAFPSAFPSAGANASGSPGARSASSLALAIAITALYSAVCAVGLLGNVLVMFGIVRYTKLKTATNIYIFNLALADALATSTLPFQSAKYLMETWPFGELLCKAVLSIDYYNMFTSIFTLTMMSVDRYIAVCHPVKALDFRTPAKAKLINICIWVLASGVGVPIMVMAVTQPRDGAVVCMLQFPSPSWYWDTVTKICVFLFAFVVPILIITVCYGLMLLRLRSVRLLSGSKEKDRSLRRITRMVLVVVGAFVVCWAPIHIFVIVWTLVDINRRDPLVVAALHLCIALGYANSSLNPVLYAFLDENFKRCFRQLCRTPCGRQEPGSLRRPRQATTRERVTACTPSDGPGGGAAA

For the compound `CC(=O)O[C@H]1C=C[C@H]2[C@H]3Cc4ccc(O)c5c4[C@@]2(CCN3C)[C@H]1O5` [6-acetyl morphine], the antinociceptive activity result in the series with mice of the CXBX strain was “potently antinociceptive”. For the compound `CC(=O)Oc1ccc2c3c1O[C@H]1[C@@H](OC(C)=O)C=C[C@H]4[C@@H](C2)N(C)CC[C@@]341` [heroin], the antinociceptive activity result in the series with mice of the CXBX strain is listed as “potently antinociceptive”. Further, the antinociception result in series [1] is “still produce antinociception”. Take `CN1CC[C@]23c4c5ccc(O)c4O[C@H]2[C@@H](O[C@@H]2O[C@H](C(=O)O)[C@@H](O)[C@H](O)[C@H]2O)C=C[C@H]3[C@H]1C5` [morphine-6b-glucuronide]: the antinociceptive activity entry in the series with mice of the CXBX strain is recorded as “potently antinociceptive”. With `CN1CC[C@]23c4c5ccc(O)c4O[C@H]2[C@@H](O)C=C[C@H]3[C@H]1C5` [morphine], in the series on mice of the CXBX strain, the antinociceptive activity result was “poor antinociceptive agent”. For the same compound, in the series with mice, the “cross tolerance with morphine-6b-glucuronide, heroin or 6-acetyl morphine” value is on record as “does not exhibit cross tolerance”. For `C=CCN1CC[C@]23c4c5ccc(O)c4O[C@H]2/C(=N\N)CC[C@@]3(O)[C@H]1C5` [naloxazone], in the series with μ-receptor, the “block of morphine-induced antinociception” value is listed as “selectively blocked”, the “block of morphine-induced respiratory depression” value is “did not block” and the “block of the induction of morphine dependence” value is “did not block”. Also, the “effect on binding of radioligands to the μ1-site” value in the series with μ1-site is “abolish the binding of radioligands”. Turning to `C=CCN1CC[C@]23c4c5ccc(O)c4O[C@H]2/C(=N/N=C2\CC[C@@]4(O)[C@H]6Cc7ccc(O)c8c7[C@@]4(CCN6CC=C)[C@H]2O8)CC[C@@]3(O)[C@H]1C5` [naloxonazine], the “effect on binding of radioligands to the μ1-site” value in the series with μ1-site is on record as “abolish the binding of radioligands”. Regarding `Oc1ccc2c3c1O[C@H]1c4oc5ccccc5c4C[C@@]4(O)[C@@H](C2)N(CC2CC2)CC[C@]314` [naltriben], the “displacement of [3H]-diprenorphine binding, compared with BNTX” value at cloned DOR-1 receptor is recorded as “more highly displaced”.
